Experimental data from PubChem BioAssay AID324 (DTP/NCI, 2004).
Inconclusive results and toxic doses are left out.

Tested on: CD2F1 mice, AMSA-resistant P388 leukemia ip, median survival T/C
Assay: NCI In Vivo Anticancer Drug Screen. Data for tumor model P388 Leukemia resistant to AMSA; NSC 249992 (intraperitoneal) in CD2F1 (CDF1) mice
Settings: endpoint: median survival time, higher = longer survival
Procedure: The antitumor activity of compounds was measured in mice bearing transplantable tumors. Survival or tumor size were measured and the results are expressed as the measurement made in the treated group (T) divided by the measurement made in the vehicle treated control group (C). The tumor model used in this assay is P388 Leukemia resistant to AMSA; NSC 249992 (intraperitoneal) in CD2F1 (CDF1) mice

What does the source list for `CC[C@](O)(C(=O)O)c1cc2n(c(=O)c1CO)Cc1cc3ccccc3nc1-2`?
T/C (dose: 18.0 mg/kg/injection, schedule: Q04DX003 (ip), vehicle: saline): 192 % of control; T/C (dose: 30.0 mg/kg/injection, schedule: Q04DX003 (ip), vehicle: saline): 193 % of control; T/C (dose: 50.0 mg/kg/injection, schedule: Q04DX003 (ip), vehicle: saline): 240 % of control

Which T/C (dose: 1.94 mg/kg/injection, schedule: Q04DX003 (ip), vehicle: water) does the source give for `COc1cccc2c1C(=N)c1c(O)c3c(c(O)c1C2=O)C[C@@](O)(C(C)=O)C[C@@H]3OC1CC(N)C(O)C(C)O1` (stereo partly specified) here?
Its T/C is 98 % of control.

What about the T/C (dose: 3.24 mg/kg/injection, schedule: Q04DX003 (ip), vehicle: water) of the same compound?
The T/C was 98 % of control.

And the T/C (dose: 5.4 mg/kg/injection, schedule: Q04DX003 (ip), vehicle: water)?
The T/C was 97 % of control.

What about the T/C (dose: 9.0 mg/kg/injection, schedule: Q04DX003 (ip), vehicle: water) of the same compound?
Its T/C is 100 % of control.

What about the T/C (dose: 15.0 mg/kg/injection, schedule: Q04DX003 (ip), vehicle: water) of the same compound?
The T/C was 100 % of control.

What does the source list for `COC(=O)[C@@H]1c2cc3c(c(O)c2[C@@H](OC2OC(C)C(OC)C(C)(OC)C2OC)C[C@]1(C)O)C(=O)c1c(O)cc2c(c1C3=O)O[C@H]1O[C@]2(C)[C@H](O)[C@@H](N(C)C)[C@@H]1O` (stereo partly specified)?
T/C (dose: 0.43 mg/kg/injection, schedule: Q04DX003 (ip), vehicle: water): 108 % of control; T/C (dose: 0.52 mg/kg/injection, schedule: Q04DX003 (ip), vehicle: clinical formulation): 107 % of control; T/C (dose: 0.72 mg/kg/injection, schedule: Q04DX003 (ip), vehicle: water): 113 % of control; T/C (dose: 0.86 mg/kg/injection, schedule: Q04DX003 (ip), vehicle: clinical formulation): 114 % of control; T/C (dose: 1.2 mg/kg/injection, schedule: Q04DX003 (ip), vehicle: water): 107 % of control; T/C (dose: 1.44 mg/kg/injection, schedule: Q04DX003 (ip), vehicle: clinical formulation): 112 % of control; T/C (dose: 2.0 mg/kg/injection, schedule: Q04DX003 (ip), vehicle: water): 118 % of control; T/C (dose: 2.4 mg/kg/injection, schedule: Q04DX003 (ip), vehicle: clinical formulation): 110 % of control; T/C (dose: 3.33 mg/kg/injection, schedule: Q04DX003 (ip), vehicle: water): 97 % of control

How did the T/C (dose: 13.0 mg/kg/injection, schedule: Q04DX003 (ip), vehicle: distilled water + Tween-80) turn out when `COc1cc(NS(C)(=O)=O)ccc1Nc1c2ccccc2nc2cc(C(F)(F)F)c(N)cc12` was run?
Its T/C is 106 % of control.

And the T/C (dose: 21.6 mg/kg/injection, schedule: Q04DX003 (ip), vehicle: distilled water + Tween-80)?
The T/C was 103 % of control.

What about the T/C (dose: 36.0 mg/kg/injection, schedule: Q04DX003 (ip), vehicle: distilled water + Tween-80) of the same compound?
The T/C was 104 % of control.

And the T/C (dose: 60.0 mg/kg/injection, schedule: Q04DX003 (ip), vehicle: distilled water + Tween-80)?
Its T/C is 108 % of control.

And the T/C (dose: 64.8 mg/kg/injection, schedule: Q04DX002 (ip), vehicle: water)?
Its T/C is 114 % of control.

And the T/C (dose: 100.0 mg/kg/injection, schedule: Q04DX003 (ip), vehicle: distilled water + Tween-80)?
Its T/C is 103 % of control.

What does the source list for `CO[C@H](C(=O)[C@@H](O)[C@@H](C)O)[C@@H]1Cc2cc3cc(OC4CC(OC5CC(O)C(O)C(C)O5)C(O)C(C)O4)c(C)c(O)c3c(O)c2C(=O)[C@H]1OC1CC(OC2CC(OC3CC(C)(O)C(O)C(C)O3)C(O)C(C)O2)C(O)C(C)O1` (stereo partly specified)?
T/C (dose: 0.13 mg/kg/injection, schedule: Q01DX005 (ip), vehicle: saline): 112 % of control; T/C (dose: 0.22 mg/kg/injection, schedule: Q01DX005 (ip), vehicle: saline): 113 % of control; T/C (dose: 0.36 mg/kg/injection, schedule: Q01DX005 (ip), vehicle: saline): 118 % of control
